Data as given in PubChem BioAssay (NCI).
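Tested at 5 concentrations; 48 h exposure; 96-well plates; endpoints linearly interpolated, else capped at highest concentration. TGI: total growth inhibition.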

How the values were obtained:
Assay in all cases: inhibition of tumour cell growth, NCI panel, 48 h
[1] = test system: DU-145 prostate
[2] = test system: OVCAR-4 ovarian
[3] = test system: SK-MEL-5 melanoma
[4] = test system: SK-MEL-2 melanoma
[5] = test system: SNB-75 CNS
[6] = test system: UO-31 renal
[7] = test system: HCT-116 colon
[8] = test system: NCI/ADR-RES ovarian
[9] = test system: A549 NSCLC
[10] = test system: CAKI-1 renal
[11] = test system: HOP-62 NSCLC
[12] = test system: SF-295 CNS
[13] = test system: SK-MEL-28 melanoma
[14] = test system: SNB-19 CNS
[15] = test system: SK-OV-3 ovarian
[16] = test system: MDA-MB-231 breast
[17] = test system: BT-549 breast
[18] = test system: KM12 colon
[19] = test system: 786-0 renal

Compound	TGI [1]	TGI [2]	TGI [3]	TGI [4]	TGI [5]	TGI [6]	TGI [7]	TGI [8]	TGI [9]	TGI [10]	TGI [11]	TGI [12]	TGI [13]	TGI [14]	TGI [15]	TGI [16]	TGI [17]	TGI [18]	TGI [19]
C=CCN1C(=O)/C(=C/c2cccs2)N=C1SC/C=C/C	> 100 µM	> 100 µM	37.7 µM	65.8 µM	> 100 µM	> 100 µM	> 100 µM	> 100 µM	> 100 µM	> 100 µM	> 100 µM	> 100 µM	> 100 µM	> 100 µM	> 100 µM	> 100 µM	> 100 µM	> 100 µM	> 100 µM
Oc1ccc(-c2cc(-c3cc(-c4ccc(O)cc4)no3)on2)cc1	> 100 µM	> 100 µM	> 100 µM	> 100 µM	> 100 µM	> 100 µM	> 100 µM	> 100 µM	> 100 µM	> 100 µM	> 100 µM	> 100 µM	> 100 µM	> 100 µM	> 100 µM	> 100 µM	> 100 µM	> 100 µM	> 100 µM
O=C1CCCN1C(=O)CS(=O)(=O)c1ccccc1	> 100 µM	> 100 µM	> 100 µM	> 100 µM	> 100 µM	> 100 µM	> 100 µM	> 100 µM	> 100 µM	> 100 µM	> 100 µM	> 100 µM	> 100 µM	> 100 µM	> 100 µM	> 100 µM	> 100 µM	> 100 µM	> 100 µM
COc1c(Br)cc2c(c1OC)C(Br)CCC(Br)(Br)C2=O (stereo not given)	9.64 µM	6.87 µM	6.26 µM	4.4 µM	22.2 µM	2.89 µM	0.853 µM	2.77 µM	16.2 µM	8.3 µM	4.81 µM	6.77 µM	8.88 µM	14.1 µM	10.5 µM	8.32 µM	1.37 µM	14.6 µM	1.46 µM
COc1ccc(C(=O)/C=C/c2ccc(O)c(O)c2)c(OC)c1	15.7 µM	> 100 µM	13.3 µM	9.82 µM	29.5 µM	41.6 µM	16.1 µM	> 61.2 µM	97.3 µM	34.5 µM	60.3 µM	31 µM	48.4 µM	19.4 µM	> 67.9 µM	27.3 µM	20.4 µM	15 µM	44.3 µM
